The values that follow come from article PMC7615676, “Short-course combination treatment for experimental chronic Chagas disease” (Science translational medicine, 2023).

Data set [1] has as its system chronic T. cruzi infection (CL Brener) in BALB/c mice. Set-up: method as in PMID 27748443. To be noted: cited from earlier work.
Details of data set [2]: method as in PMID 21073628, PMID 20932171. The conditions noted are these: patients; cited from earlier work.
Data set [3] has as its target T1, Human complex III (bc1), mitochondria from THP-1 (Homo sapiens, UniProt P00156).
T1 construct: Preparation of mitochondria from a human cell line (THP-1); endogenous in cells; host or cells: THP-1 (human) mitochondria
Description: human complex III inhibition assay. Type of data set: biochemical. How it is done: Preparation of mitochondria from a human cell line (THP-1) was performed following published procedure ([72]). The protocol for the assay has been described in ([73]).

Where [4] appears, read: 200.00 µM, read-out: Average % inhibition of human bc1.

Values joined by “and” are separate entries in the source; they are usually repeats but may differ in a detail not shown here. Identical values can stand only once. Like-named read-outs stand apart in the source and are kept apart here.

As usually defined, the EC50 is the midpoint of the concentration-response curve. Read a high EC50 as lower potency in that assay. For orientation: inhibition means the drop in the measured response relative to a control, in per cent.

Take `O=C(Cn1ccnc1[N+](=O)[O-])NCc1ccccc1` [Benznidazole, reference compound]: the “minimum efficacious dose in a five-day chronic study” value in data set [1] is reported as 100 mg/kg. Further, in data set [2], the “discontinuation of treatment prior to completion due to adverse side-effects” value is “up to 29%”.

In data set [3], `COc1ccc(-c2c(C)[nH]c3nc(N)nc(C)c23)c(OC)c1` [Compound 4, 5-(2,4-Dimethoxyphenyl)-4,6-dimethyl-7H-pyrrolo[2,3-d]pyrimidin-2-amine] had an EC50 of more than 200 µM. In data set [3] (0.09 µM), the “% inhibition of human bc1, individual replicates” value (shortened to “% inhibition of human bc1”) is -12.21% and 6.38%; the inhibition at 0.09 µM is -2.92%. In addition, in data set [3] (0.27 µM), the “% inhibition of human bc1” value is -0.73% and 8.86% and -14.09%; the inhibition at 0.27 µM is -1.99%. Further, in data set [3] (0.82 µM), the “% inhibition of human bc1” value was -0.42% and -1.05% and -3.03%; the inhibition at 0.82 µM was -1.5%. In data set [3] (2.47 µM), the “% inhibition of human bc1” value was -7.80% and 0.71% and -1.55%; the inhibition at 2.47 µM is -2.88%. In addition, in data set [3] (7.41 µM), the “% inhibition of human bc1” value is 20.02% and -3.97% and 5.85%; the inhibition at 7.41 µM was found to be 7.3%. Moreover, in data set [3] (22.22 µM), the “% inhibition of human bc1” value was 11.11% and -1.32% and 9.84%; the inhibition at 22.22 µM amounted to 6.55%. Moreover, in data set [3] (66.67 µM), the “% inhibition of human bc1” value was 21.01% and 18.54% and -10.78%; the inhibition at 66.67 µM is 9.59%. Further, the “% inhibition of human bc1” value in data set [3] (200.00 µM) was 5.17% and 18.62% and -0.60%. Besides, the inhibition at 200 µM in data set [3] (setting [4]) is 7.73%.

For `COc1cc(Cl)ccc1-c1c(C)[nH]c2nc(N)nc(C)c12` [Compound 3, 5-(4-Chloro-2-methoxyphenyl)-4,6-dimethyl-7H-pyrrolo[2,3-d]pyrimidin-2-amine], the “% inhibition of human bc1” value is -102.79% and -0.39% and 23.45% and -1.32% and -77.48% and 6.58% in data set [3] (0.09 µM); -31.71% and -5.91% and 16.57% and 7.05% and 0.38% and 2.42% in data set [3] (0.27 µM); -55.04% and -6.88% and 19.61% and 6.94% and 1.93% and 10.74% in data set [3] (0.82 µM); -19.11% and -13.68% and 7.11% and 15.66% and -8.81% and 14.23% in data set [3] (2.47 µM); -1.93% and 0.10% and 21.95% and 17.90% and 0.73% and -3.46% in data set [3] (7.41 µM); -14.09% and -16.93% and 21.42% and 11.31% and -5.13% in data set [3] (22.22 µM). The “% inhibition of human bc1” value was -178.30% and 13.25% and 22.71% and -32.39% and -2.98% and 16.87% in data set [3] (66.67 µM); 22.88% and 27.88% and 27.19% and -35.32% and 30.21% and 59.63% in data set [3] (200.00 µM). Also, the inhibition at 0.09 µM in data set [3] (0.09 µM) is -25.3%. Besides, the inhibition at 0.27 µM in data set [3] (0.27 µM) was -1.87%. In addition, the inhibition at 0.82 µM in data set [3] (0.82 µM) is -3.78%. Moreover, the inhibition at 2.47 µM in data set [3] (2.47 µM) was -0.76%. Besides, the inhibition at 7.41 µM in data set [3] (7.41 µM) was found to be 5.88%. For the same compound, the inhibition at 22.22 µM in data set [3] (22.22 µM) is -0.68%. In data set [3] (66.67 µM), the inhibition at 66.67 µM is -26.8%. Besides, the inhibition at 200 µM worked out at 22.1% in data set [3] (setting [4]) and 20% in data set [3] (200 μM, read-out: Human complex III inhibition at 200μM). Moreover, in data set [3] (concentrations up to and including 66.7 μM), the “inhibition of human complex III” value was “did not inhibit”.
